The text below walks through data of PubChem BioAssay (NCI).

Common to all, as to test: NCI-60 cell line screen, 48 h
Test [1] concerns ACHN renal.
In test [2] the test system is CAKI-1 renal.
In test [3] the test system is COLO 205 colon.
The test system of test [4] is HCT-116 colon.
Test [5] has as its system HS 578T breast.
Test [6] relates to LOX IMVI melanoma.
In test [7] the test system is OVCAR-8 ovarian.
Test [8] deals with SK-MEL-28 melanoma.
In test [9] the test system is SNB-75 CNS.
Test [10] concerns TK-10 renal.

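Cultured in 96-well plates, cells were exposed to test compound for 48 hours across five concentrations. GI50 is the concentration that inhibits growth by half. The concentration for full growth arrest is given as TGI.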

As for `Nc1cc2c3c(cccc3c1)NC2=O`, the TGI in [1], in [2], in test [3], in [4], in test [5] and in [6] was more than 100 µM in each case. Moreover, the TGI in [7], in test [8], in [9] and in [10] was more than 100 µM in each case.

Consider `CCc1nc(N)nc(N)c1-c1ccc([N+](=O)[O-])c(NCc2ccccc2)c1`, for which the TGI in test [1] is 30.5 µM; in [2], 29.3 µM; in test [3], 35 µM; in [4], more than 47.3 µM; in test [5], 51.4 µM; in [6], 45.4 µM. Moreover, the TGI in test [7] was 42.2 µM; in test [8], 35.1 µM; in test [9], 35.4 µM; in test [10] it was 53.2 µM.

Regarding `CS(=O)(=O)c1ccc(Cl)c([N+](=O)[O-])c1`, the GI50 in [1] was 16 µM; in [2], 2.05 µM; in test [3], 16.4 µM; in test [4], 12.9 µM; in test [5] it was 26 µM; in test [6] it was 10.1 µM. For the same compound, the GI50 was 17.7 µM in test [7], 17.9 µM in [8], 15.3 µM in test [9] and 18.9 µM in test [10]. Further, the TGI in [1] came out at 29.7 µM; in test [2], 4.3 µM; in test [3], 33.2 µM; in test [4], 25.7 µM; in test [5] it was 89.1 µM; in test [6], 23.4 µM. Further, the TGI in test [7] was found to be 36.8 µM; in [8], 32 µM; in test [9], 29.5 µM; in test [10], 34.4 µM.

For `Fc1cccc(COc2ccc(Nc3ncnc4sc(-c5ccco5)cc34)cc2Cl)c1`, the GI50 in [1], in test [2], in [3], in test [4], in [5] and in [6] was more than 25 µM each time. Moreover, the GI50 in [7], in test [8], in [9] and in [10] was more than 25 µM each time. Further, the TGI in test [1], in test [2], in test [3], in test [4], in test [5] and in [6] was more than 25 µM each time. The TGI in test [7], in test [8], in [9] and in [10] was more than 25 µM each time.

With `N/C(=N\OC(=O)c1ccccc1)C(C(=O)NOC(=O)c1ccccc1)C1CCCCC1` (stereo not given), the GI50 in [1] was 3.04 µM; in test [2], 0.5 µM; in [3], 11.6 µM; in test [4] it was 3.45 µM; in test [5], 2.57 µM; in [6], 0.343 µM. Further, the GI50 in test [7] is 3.38 µM; in test [8], 16.2 µM; in test [9], 2.79 µM; in test [10], 12.4 µM. In addition, the TGI in test [1] was found to be 10.9 µM; in [2] it was 1.73 µM; in test [3] it was 26.8 µM; in [4], 13 µM; in test [5] it was 7.93 µM; in test [6], 1.38 µM. In addition, the TGI in test [7] is 14.8 µM; in [8] it was 50.7 µM; in test [9], 11.9 µM; in test [10], 26.9 µM.

Take `O=C(O)c1cc[c]([Hg][S]c2ncnc3nc[nH]c23)cc1`: the GI50 in test [1] was 11.6 µM; in test [2] it was 4.96 µM; in test [3], 12.4 µM; in [4] it was 4.89 µM; in [5] it was 1.5 µM; in test [6], 0.684 µM. The GI50 in [7] was 4.44 µM; in [8], 17.4 µM; in [9], 1.45 µM; in test [10], 2.59 µM. Moreover, the TGI was found to be 23.7 µM in test [1]; 21.1 µM in test [2]; 26.9 µM in test [3]; 22.3 µM in [4]; 6.06 µM in [5]; 17.1 µM in test [6]. In addition, the TGI turned out to be 25.3 µM in [7], 32 µM in [8], 19.4 µM in test [9] and 14.3 µM in test [10].

On to `CC1(C)CCC(C)(C)c2cc(C(=O)Nc3ccc(C(=O)O)cc3)ccc21`, for which the TGI in test [1] was more than 61.2 µM; in test [2], 37.2 µM; in [3] it was 36 µM; in test [4], 37.4 µM; in test [5], more than 46.8 µM; in [6], more than 58.2 µM. For the same compound, the TGI in [7] is more than 88.5 µM; in test [8] it was more than 90.8 µM; in test [9], more than 100 µM; in test [10], more than 73.3 µM.

For the compound `COc1cc(/C=C2\CN(C)CC3=C2Nc2nc(SC)[nH]c(=O)c2C3c2cc(OC)c(OC)c(OC)c2)cc(OC)c1OC` (stereo not given), the GI50 is 1.93 µM in test [1]; 2.15 µM in test [2]; 2.11 µM in [3]; 1.66 µM in [4]; 8.88 µM in [5]; 1.66 µM in test [6]. The GI50 in test [7] was 2.89 µM; in test [8] it was 2.1 µM; in [9] it was 7.36 µM; in test [10], 6.06 µM. The TGI in [1] was 3.55 µM; in test [2] it was 4.71 µM; in [3] it was 4.73 µM; in test [4], 3.17 µM; in [5], more than 100 µM; in test [6], 3.94 µM. The TGI in test [7] is more than 100 µM; in test [8] it was 4.29 µM; in test [9], 22.6 µM; in [10] it was 18.9 µM.
